The record followed here is publication PMC12748989 (Nature Communications, 2025).

The test system of one assay is TamR3 cells. Particulars: 24 h.
The next assay deals with MCF10A cells. Particulars: 24 h.
For the next assay, the system named is MCF7 cells. Particulars: 24 h.
In another assay the test system is PBMC. Particulars: 12.5 µM.

For orientation: IC50 means the concentration that gives 50% inhibition. Read a low IC50 as inhibition by little substance.

Ends that are not written are not given here.

As to `CC[C@H](C)[C@H](N)C(=O)N[C@@H](CC(N)=O)C(=O)N[C@@H](CC(C)C)C(=O)N[C@@H](CCCCN)C(=O)N[C@@H](C)C(=O)N[C@@H](CC(C)C)C(=O)N[C@@H](C)C(=O)N[C@@H](C)C(=O)N[C@@H](CC(C)C)C(=O)N[C@@H](C)C(=O)N[C@@H](CCCCN)C(=O)N[C@@H](CCCCN)C(=O)N[C@H](C(=O)N[C@@H](CC(C)C)C(N)=O)[C@@H](C)CC` [Mastoparan, reference compound], the results for the IC50 in the assay with TamR3 cells, with MCF10A cells and in the assay with MCF7 cells were 18.4 µM, 16.9 µM and 21.8 µM, respectively.
Turning to `CC[C@H](C)[C@H](N)C(=O)N[C@@H](CC(N)=O)C(=O)N[C@@H](CC(C)C)C(=O)N[C@@H](CCCCN)C(=O)N[C@@H](C)C(=O)N[C@@H](CC(C)C)C(=O)N[C@@H](C)C(=O)N[C@@H](C)C(=O)N[C@@H](CC(C)C)C(=O)N[C@@H](C)C(=O)N[C@@H](CCCCN)C(=O)N[C@@H](CCCCN)C(=O)N[C@@H](Cc1ccc(O)cc1)C(=O)N[C@@H](CC(C)C)C(N)=O` [Y13], the “Average (percentage cell inhibition), Dmastoparan MDA-MB231 12.5uM” value with MDA-MB-231 cells was determined as 39.3488%. The “Average (percentage cell inhibition), Mastoparan PBMC” value in the assay on PBMC is listed as 16.5864%.
In the same order, the values of `CC[C@H](C)[C@H](N)C(=O)N[C@@H](CC(N)=O)C(=O)N[C@@H](CC(C)C)C(=O)N[C@@H](CCCCN)C(=O)N[C@@H](C)C(=O)N[C@@H](CC(C)C)C(=O)N[C@@H](C)C(=O)N[C@@H](C)C(=O)N[C@@H](CC(C)C)C(=O)N[C@@H](C)C(=O)N[C@@H](CCCCN)C(=O)N[C@@H](CCCCN)C(=O)N[C@H](C(=O)N[C@@H](Cc1ccc(O)cc1)C(N)=O)[C@@H](C)CC` [Y14] are 29.2623% and -0.4376%.
Consider H-INLKALAALAKKLL-NH2 [L13], for which the “Average (percentage cell inhibition), Dmastoparan MDA-MB231 12.5uM” value with MDA-MB-231 cells stood at 83.7429%. In the assay with PBMC, the “Average (percentage cell inhibition), Mastoparan PBMC” value is reported as 38.8767%.
In the case of IILKKLLDFILK-NH2 [peptide 29], the IC50 in the assay on TamR3 cells amounted to 14.6 µM; in the assay with MCF10A cells it was 16.8 µM; with MCF7 cells, 16.4 µM.
In the same order, the values of LLQWLLKRLKAK-NH2 [peptide 11] are 11.4 µM, 16 µM and 11.5 µM.
As to TLLTAIVKLFLK-NH2 [peptide 57], the figures for the IC50 in the assay with TamR3 cells, in the assay on MCF10A cells and in the assay with MCF7 cells were 18.1 µM, 14.9 µM and 25 µM, respectively.
